In PMC3538728 (PLoS ONE, 2013):
Where “and” joins values, the source holds several entries; their conditions need not be identical. Identical values can stand only once. Like-named read-outs stand apart in the source and are kept apart here.

Molecular target: T1, γ-secretase (Homo sapiens, UniProt P49768)
T1 construct: γ-Secretase is composed of four subunits: Aph1, Pen2, glycosylated nicastrin, and endo-proteolyzed presenilin as the catalytic core; endogenous in cells; host or cells: HeLa S3 (ATCC CCL-2.2)
T1 sequence (Q9NZ42 whole entry, other chains not shown): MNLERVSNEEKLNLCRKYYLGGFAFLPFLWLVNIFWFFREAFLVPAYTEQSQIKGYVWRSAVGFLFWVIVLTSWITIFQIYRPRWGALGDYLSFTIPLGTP
T1 sequence (Q92542 34-709, other chains not shown, further chain): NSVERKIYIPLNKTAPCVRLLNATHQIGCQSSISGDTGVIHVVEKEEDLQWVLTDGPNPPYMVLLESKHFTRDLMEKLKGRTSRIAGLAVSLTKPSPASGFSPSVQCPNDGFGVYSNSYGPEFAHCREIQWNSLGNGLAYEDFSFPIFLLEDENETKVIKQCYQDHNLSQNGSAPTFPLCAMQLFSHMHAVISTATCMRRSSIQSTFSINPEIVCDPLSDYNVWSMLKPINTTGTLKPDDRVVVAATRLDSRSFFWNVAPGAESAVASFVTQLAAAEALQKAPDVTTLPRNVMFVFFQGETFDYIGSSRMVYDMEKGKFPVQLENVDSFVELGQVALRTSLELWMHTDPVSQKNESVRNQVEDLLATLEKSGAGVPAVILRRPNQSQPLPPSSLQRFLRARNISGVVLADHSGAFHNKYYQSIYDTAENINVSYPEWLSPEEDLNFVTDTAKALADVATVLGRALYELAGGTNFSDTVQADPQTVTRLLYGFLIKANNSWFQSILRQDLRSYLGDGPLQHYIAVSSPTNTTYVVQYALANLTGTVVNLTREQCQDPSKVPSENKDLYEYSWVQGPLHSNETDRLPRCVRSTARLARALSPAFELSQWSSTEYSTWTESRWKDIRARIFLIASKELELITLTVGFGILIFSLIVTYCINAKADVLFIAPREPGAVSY
T1 sequence (Q96BI3 whole entry, other chains not shown, further chain): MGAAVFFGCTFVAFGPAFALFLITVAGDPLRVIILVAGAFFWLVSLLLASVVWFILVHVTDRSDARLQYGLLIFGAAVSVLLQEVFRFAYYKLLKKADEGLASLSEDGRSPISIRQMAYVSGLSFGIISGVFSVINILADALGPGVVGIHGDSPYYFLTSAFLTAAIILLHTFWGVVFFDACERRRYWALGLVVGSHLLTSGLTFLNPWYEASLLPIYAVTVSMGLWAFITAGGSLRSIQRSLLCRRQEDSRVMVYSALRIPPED
Test: Aβ 1–40 secretion from HeLa cells in the presence of DAPT (sandwich ELISA), dose-response fits
Assay type: cell-based
Details: for EC50: read-out: Activation EC50; for IC50: read-out: Inhibition IC50; for Maximal Activity that can be achieved by transfection (Aβ 1-40 secreted): HeLa transfected with cDNAwtC99
Text: HeLa cells have been transfected using Lipofectamine LTX™ reagent following the manufacturer instructions. The transfection protocol and concentration of pSG5-cDNAwtC99 plasmid have been optimized to achieve desired assay sensitivity, a gradual increase in the substrate expression level, and a smooth transition from biphasic to the standard dose-response curves (Figs. 2–3). Initially concentration of pSG5-cDNAwtC99 plasmid have been optimized by western blots using anti-flag αM2 monoclonal antibody as described in our previous study. The cells were transfected in 24-well plates. The day before transfection the cells were trypsinized and counted. About 0.85×10^5 cells were seeded per well in 0.5 ml of complete growth medium to achieve about 75% confluent cultures on the day of transfection. Before the transfection old medium was removed and replaced with fresh 0.5 ml of complete growth medium. For transfection 5X DNA concentration was diluted in 500 µl of Opti-MEM®I Reduced Serum Media and mixed with 0.7 µl of Lipofectamine LTX™ Reagent. The solution was gently mixed and incubated for 30 minutes at room temperature to form DNA- Lipofectamine LTX™ Reagent complexes. Following the 30 min incubation, 100 µl of the DNA- Lipofectamine LTX™ Reagent complexes was added directly to each well containing cells and mixed gently by rocking the plate back and forth. The cells were incubated at 37°C in a CO2 incubator for 18 hours.
Fresh medium was added 18 hours after the transfection (0.5 ml per well), to prepare the cells for incubation with DAPT [18], [51]. Different concentrations of DAPT were prepared in DMSO, and added to the cells so that the final DMSO concentration in the culture was 0.1% (v/v). DMSO vehicle represents 0 nM DAPT. The cells were incubated with DAPT at given concentrations for 15 hours.
The assay linear response is in the range from 6–125 pM of Aβ 1–40. The assays were performed by closely following the manufacturer instructions. […] Each well was filled with 50 µl of the antibody conjugate solution and 50 µl of sample. The Aβ 1–40 standards were supplied by the manufacturer and prepared in parallel with other samples. All of the prepared wells were wrapped in aluminum foil and incubated overnight at 4°C with gentle mixing. The next day each well was washed five times with 300 µl of wash solution. After each […] wash, the wash solution was poured out and the wells were dried by tapping the plates on an absorbing paper. Washed wells were filled with 100 µl of the enzyme conjugate solution, covered, and incubated for 30 min at room temperature with shaking. The washing procedure was repeated once again to remove excess of the enzyme-conjugate. Next 100 µl of the substrate solution was added in each well in dark, and kept for 30 minutes covered at room temperature. The reaction was quenched by adding 50 µl of stop solution to each well, and within 15 min the signal intensity was read by measuring absorption at 450 nm.
All experimental results were analyzed using MicroCal Origin 7.0 program, nonlinear regressions, and equations that represent specific mechanism. All results are reported as the best fit value ± standard error with two-sigma confidence intervals shown in square brackets (i.e. x±y [p, q]). Briefly, the standard error indicates random errors (i.e. precision) for each method, while the two sigma confidence intervals indicate the ability of given experimental setup to provide information about specific best-fit parameter. The random error for presented experiments is low, as indicated by a low scatter from the best fit values. The sharp confidence intervals can be obtained by taking a large number of independent data points that cover all segments that define the measured functions. […]

[1] = Aβ 1-40 secreted, untransfected HeLa cells, eqn. 1, six free fit parameters
[2] = Aβ 1-40 secretion, untransfected HeLa cells, eqn. 1, six free fit parameters
[3] = HeLa, 0 ng/mL pSG5-cDNAwtC99, eqn. 1
[4] = HeLa, 15 ng/mL pSG5-cDNAwtC99, eqn. 1
[5] = HeLa, 25 ng/mL pSG5-cDNAwtC99, eqn. 1
[6] = HeLa, 61 ng/mL pSG5-cDNAwtC99, eqn. 1
[7] = HeLa, 92 ng/mL pSG5-cDNAwtC99, eqn. 1

SMILES: C[C@H](NC(=O)Cc1cc(F)cc(F)c1)C(=O)N[C@H](C(=O)OC(C)(C)C)c1ccccc1 [DAPT, N-[N-(3,5-difluorophenacetyl)-L-alanyl]-S-phenylglycine t-butyl ester]
- Endogenous activity as percentage of maximal activity achieved by transfection (33 nM DAPT): 40% and 39.7%
- cDNAwtC99 required to reach maximal activity (33 nM DAPT): 192 ng/mL and 191.0 ng/mL
- Endogenous activity as percentage of maximal activity achieved by transfection (100 nM DAPT): 72% and 72.5%
- cDNAwtC99 required to reach maximal activity (100 nM DAPT): 92.7 ng/mL
- Endogenous activity as percentage of maximal activity achieved by transfection (333 nM DAPT): 92.1%
- cDNAwtC99 required to reach maximal activity (333 nM DAPT): 59.8 ng/mL
- Endogenous activity as percentage of maximal activity achieved by transfection (500 nM DAPT): 89.3%
- cDNAwtC99 required to reach maximal activity (500 nM DAPT): 39.2 ng/mL
- Endogenous activity as percentage of maximal activity achieved by transfection (1000 nM DAPT): 96.2%
- cDNAwtC99 required to reach maximal activity (1000 nM DAPT): 14.0 ng/mL
- Initial Activity, IA (Aβ 1-40 secreted, untransfected HeLa cells, endogenous substrate, activity at inhibitor concentration zero, eqn. 1, six free fit parameters): 31 ± 4 pM per 10^6 cells
- Maximal Activity (MA), calculated activation plateau [1]: 196 pM per 10^6 cells and 196 ± 80 pM per 10^6 cells
- Maximal Inhibition, MI [1]: 0.5 ± -3.4 pM per 10^6 cells
- EC50 [2]: 72 ± 20 nM
- IC50 [2]: 472 ± 95 nM
- Maximal Activity that can be achieved by transfection (Aβ 1-40 secreted) (33 nM DAPT): 204.5 pM per 10^6 cells
- Maximal Activity that can be achieved by transfection (Aβ 1-40 secreted) (100 nM DAPT): 182 pM per 10^6 cells and 182.0 pM per 10^6 cells
- Maximal Activity that can be achieved by transfection (Aβ 1-40 secreted) (333 nM DAPT): 140.0 pM per 10^6 cells
- Maximal Activity that can be achieved by transfection (Aβ 1-40 secreted) (500 nM DAPT): 125.0 pM per 10^6 cells
- Maximal Activity that can be achieved by transfection (Aβ 1-40 secreted) (1000 nM DAPT): 44.7 pM per 10^6 cells
- Activation Hill coef. [3]: 1.04 ± 0.2
- Inhibition Hill's coef [3]: 2 ± 0.3
- Maximal Activity, MA [3]: 217 ± 110 pM per 10^6 cells
- Maximal Inhibition, MI [3]: -1 ± 0.1 pM per 10^6 cells
- Initial Activity, IA (HeLa, 0 ng/mL pSG5-cDNAwtC99, eqn. 1, activity at zero DAPT): 32 ± 3 pM per 10^6 cells
- EC50 [3]: 89 ± 17 nM
- IC50 [3]: 407 ± 34 nM
- Activation Hill coef. [4]: 1.08 ± 0.2
- Inhibition Hill's coef [4]: 2.4 ± 0.3
- Maximal Activity, MA [4]: 172 ± 90 pM per 10^6 cells
- Maximal Inhibition, MI [4]: 0.33 ± 0.7 pM per 10^6 cells
- Initial Activity, IA (HeLa, 15 ng/mL pSG5-cDNAwtC99, eqn. 1, activity at zero DAPT): 41 ± 3 pM per 10^6 cells
- EC50 [4]: 71 ± 21 nM
- IC50 [4]: 588 ± 35 nM
- Activation Hill coef. [5]: 1.0 ± 0.1
- Inhibition Hill's coef [5]: 2.2 ± 0.4
- Maximal Activity, MA [5]: 205 ± 80 pM per 10^6 cells
- Maximal Inhibition, MI [5]: -0.2 ± 0.1 pM per 10^6 cells
- Initial Activity, IA (HeLa, 25 ng/mL pSG5-cDNAwtC99, eqn. 1, activity at zero DAPT): 51 ± 5 pM per 10^6 cells
- EC50 [5]: 110 ± 34 nM
- IC50 [5]: 524 ± 71 nM
- Activation Hill coef. [6]: 1.13 ± 0.6
- Inhibition Hill's coef [6]: 2.3 ± 0.5
- Maximal Activity, MA [6]: 180 ± 145 pM per 10^6 cells
- Maximal Inhibition, MI [6]: 1.2 ± 0.2 pM per 10^6 cells
- Initial Activity, IA (HeLa, 61 ng/mL pSG5-cDNAwtC99, eqn. 1, activity at zero DAPT): 91 ± 6 pM per 10^6 cells
- EC50 [6]: 107 ± 36 nM
- IC50 [6]: 489 ± 62 nM
- Activation Hill coef. [7]: 0.92 ± 0.3
- Inhibition Hill's coef [7]: 1.7 ± 0.6
- Maximal Activity, MA [7]: 170 ± 95 pM per 10^6 cells
